Legend:
[1] = target: Adrenergic receptor alpha-1 (Homo sapiens) (UniProt P35348+P25100+P35368); test: Inhibition of alpha1 receptor at 10 uM; assay type: protein assay
[2] = target: Nociceptin receptor (Homo sapiens) (UniProt P41146); test: Inhibition of human ORL1 at 10 uM
[3] = target: Sodium-dependent noradrenaline transporter (Homo sapiens) (UniProt P23975); test: Inhibition of human NE transporter at 10 uM
[4] = tested on: Mus musculus; test: Inhibition of peribronchial eosinophilia in BALB/c mouse at 100 mg/kg, po relative to control; assay type: functional
[5] = target: Histamine H2 receptor (Homo sapiens) (UniProt P25021); test: Inhibition of human H2 receptor at 10 uM
[6] = target: Sodium-dependent serotonin transporter (Homo sapiens) (UniProt P31645); test: Inhibition of human 5-HT transporter at 10 uM
[7] = target: Prostaglandin G/H synthase 2 (Homo sapiens) (UniProt P35354); test: Inhibition of COX2 at 10 uM
[8] = target: Polyunsaturated fatty acid lipoxygenase ALOX12 (Homo sapiens) (UniProt P18054); test: Inhibition of 12-LO at 10 uM
[9] = target: GABA-A receptor; anion channel (Homo sapiens) (UniProt P14867+P47870+P18507+P28472+P48169+Q99928+Q9UN88+P34903+O00591+O14764+Q8N1C3+P18505+P78334+P47869+P31644+Q16445); test: Inhibition of human GABA receptor at 10 uM; assay type: protein-complex assay
[10] = target: Sodium-dependent dopamine transporter (Homo sapiens) (UniProt Q01959); test: Inhibition of human DA transporter at 10 uM
[11] = Bioavailability in rat; assay type: ADME, organism-based; conditions: in vivo
[12] = target: Substance-P receptor (Homo sapiens) (UniProt P25103); test: Inhibition of human NK1 receptor at 10 uM
[13] = target: Prostaglandin D2 receptor 2 (Mus musculus, UniProt Q9Z2J6); test: Inhibition of mouse CRTH2 receptor
[14] = target: B2 bradykinin receptor (Homo sapiens) (UniProt P30411); test: Inhibition of human B2 receptor at 10 uM
[15] = target: Cysteinyl leukotriene receptor 1 (Homo sapiens) (UniProt Q9Y271); test: Inhibition of human LTD4 receptor at 10 uM
[16] = Half life in rat; assay type: ADME, organism-based; conditions: in vivo
[17] = Distribution coefficient, log D at pH 7.4; assay type: physicochemical; conditions: octanol/water
[18] = target: Glutamate [NMDA] receptor (Homo sapiens) (UniProt Q05586+Q12879+Q13224+O15399+O60391+Q14957+Q8TCU5); test: Inhibition of human NMDA receptor at 10 uM; assay type: protein-complex assay
[19] = target: Beta-1 adrenergic receptor (Homo sapiens) (UniProt P08588); test: Inhibition of human beta-1 receptor at 10 uM
[20] = target: Prostaglandin G/H synthase 1 (Homo sapiens) (UniProt P23219); test: Inhibition of COX1 at 10 uM
[21] = Permeability from basolateral to apical side of Caco-2 cells; assay type: ADME, cell-based; conditions: human, read-out: permeability
[22] = species: Homo sapiens; test: Stability in human liver S9 fraction; assay type: ADME
[23] = target: Adenosine receptor A2a (Homo sapiens) (UniProt P29274); test: Inhibition of human A2A receptor at 10 uM
[24] = target: fMet-Leu-Phe receptor (Homo sapiens) (UniProt P21462); test: Inhibition of human fMLP receptor at 10 uM
Chain of fMet-Leu-Phe receptor (Homo sapiens) (P21462 whole entry): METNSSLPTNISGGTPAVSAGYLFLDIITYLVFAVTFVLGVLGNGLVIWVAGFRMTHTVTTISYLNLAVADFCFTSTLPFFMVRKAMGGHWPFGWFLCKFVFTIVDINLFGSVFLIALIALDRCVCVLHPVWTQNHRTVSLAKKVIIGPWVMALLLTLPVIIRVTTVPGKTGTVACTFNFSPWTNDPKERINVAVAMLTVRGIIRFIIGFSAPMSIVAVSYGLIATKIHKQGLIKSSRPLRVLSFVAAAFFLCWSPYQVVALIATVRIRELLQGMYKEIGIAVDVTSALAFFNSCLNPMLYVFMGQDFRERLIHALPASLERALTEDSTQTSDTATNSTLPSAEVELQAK

Chain of Prostaglandin D2 receptor 2 (Q9Z2J6 whole entry): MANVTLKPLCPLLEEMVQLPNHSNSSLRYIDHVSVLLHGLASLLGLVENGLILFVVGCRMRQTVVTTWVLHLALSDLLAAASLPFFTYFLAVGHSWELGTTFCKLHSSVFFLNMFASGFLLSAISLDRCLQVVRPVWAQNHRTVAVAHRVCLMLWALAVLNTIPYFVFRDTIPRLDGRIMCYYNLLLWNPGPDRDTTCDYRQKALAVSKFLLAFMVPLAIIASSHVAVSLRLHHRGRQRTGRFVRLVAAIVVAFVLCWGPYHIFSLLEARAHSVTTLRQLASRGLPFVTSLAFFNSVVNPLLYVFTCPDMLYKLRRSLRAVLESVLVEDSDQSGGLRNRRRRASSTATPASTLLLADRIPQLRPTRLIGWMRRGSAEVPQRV
Chain of Prostaglandin G/H synthase 2 (Homo sapiens) (P35354 whole entry): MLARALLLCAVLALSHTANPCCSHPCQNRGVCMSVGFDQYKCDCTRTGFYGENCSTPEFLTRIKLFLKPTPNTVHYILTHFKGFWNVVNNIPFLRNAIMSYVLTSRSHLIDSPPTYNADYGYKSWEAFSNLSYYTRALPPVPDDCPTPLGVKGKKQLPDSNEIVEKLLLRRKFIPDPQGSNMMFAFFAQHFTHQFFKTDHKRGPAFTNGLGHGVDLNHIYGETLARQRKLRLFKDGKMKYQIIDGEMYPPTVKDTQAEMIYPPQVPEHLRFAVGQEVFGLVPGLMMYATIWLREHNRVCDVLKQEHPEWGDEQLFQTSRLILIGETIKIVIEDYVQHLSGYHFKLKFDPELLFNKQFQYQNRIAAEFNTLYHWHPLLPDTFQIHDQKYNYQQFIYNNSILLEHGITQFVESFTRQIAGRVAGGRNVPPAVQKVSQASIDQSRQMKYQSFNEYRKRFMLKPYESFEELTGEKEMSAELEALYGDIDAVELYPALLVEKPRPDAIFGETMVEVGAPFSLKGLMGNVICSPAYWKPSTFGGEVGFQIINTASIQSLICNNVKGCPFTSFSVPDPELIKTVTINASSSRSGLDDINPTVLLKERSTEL
Chain of Adenosine receptor A2a (Homo sapiens) (P29274 whole entry): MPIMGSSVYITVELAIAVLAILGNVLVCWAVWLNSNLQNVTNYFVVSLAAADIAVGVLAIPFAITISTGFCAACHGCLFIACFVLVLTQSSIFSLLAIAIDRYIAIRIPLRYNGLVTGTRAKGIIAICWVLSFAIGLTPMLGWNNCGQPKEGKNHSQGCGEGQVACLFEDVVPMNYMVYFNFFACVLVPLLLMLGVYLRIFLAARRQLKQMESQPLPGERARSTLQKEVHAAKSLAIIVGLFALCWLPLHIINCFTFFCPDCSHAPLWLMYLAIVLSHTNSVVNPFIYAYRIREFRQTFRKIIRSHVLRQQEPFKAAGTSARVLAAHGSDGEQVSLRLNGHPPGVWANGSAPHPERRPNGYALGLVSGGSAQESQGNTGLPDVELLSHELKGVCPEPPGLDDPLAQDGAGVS
Chain of Sodium-dependent serotonin transporter (Homo sapiens) (P31645 whole entry, looked up): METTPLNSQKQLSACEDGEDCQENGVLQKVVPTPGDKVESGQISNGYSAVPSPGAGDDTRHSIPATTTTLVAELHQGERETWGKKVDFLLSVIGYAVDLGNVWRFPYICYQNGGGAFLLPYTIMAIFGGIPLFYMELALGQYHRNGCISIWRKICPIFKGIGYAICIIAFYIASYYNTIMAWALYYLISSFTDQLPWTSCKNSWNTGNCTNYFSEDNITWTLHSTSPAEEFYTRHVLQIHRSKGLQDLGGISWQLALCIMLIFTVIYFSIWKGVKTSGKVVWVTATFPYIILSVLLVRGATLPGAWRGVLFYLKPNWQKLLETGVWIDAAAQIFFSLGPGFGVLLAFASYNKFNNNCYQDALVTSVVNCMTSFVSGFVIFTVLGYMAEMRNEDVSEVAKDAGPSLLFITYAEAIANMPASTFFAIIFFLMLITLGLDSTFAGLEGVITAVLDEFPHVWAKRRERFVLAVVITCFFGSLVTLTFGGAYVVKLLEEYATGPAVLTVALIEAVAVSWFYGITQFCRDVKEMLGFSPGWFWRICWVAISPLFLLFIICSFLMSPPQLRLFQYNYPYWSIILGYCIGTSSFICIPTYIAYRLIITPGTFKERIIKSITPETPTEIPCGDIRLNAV
Chain of Cysteinyl leukotriene receptor 1 (Homo sapiens) (Q9Y271 whole entry): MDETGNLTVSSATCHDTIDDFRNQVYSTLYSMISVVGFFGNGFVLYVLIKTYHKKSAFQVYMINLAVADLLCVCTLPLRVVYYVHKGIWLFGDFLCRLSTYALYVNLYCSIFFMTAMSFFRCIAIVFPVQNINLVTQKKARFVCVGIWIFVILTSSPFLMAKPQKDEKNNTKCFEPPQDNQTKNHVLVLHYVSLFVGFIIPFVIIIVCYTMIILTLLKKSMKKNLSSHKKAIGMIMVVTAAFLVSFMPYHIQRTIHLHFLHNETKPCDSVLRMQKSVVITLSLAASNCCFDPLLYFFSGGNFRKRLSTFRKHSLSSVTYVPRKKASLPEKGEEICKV
Chain of Nociceptin receptor (Homo sapiens) (P41146 whole entry): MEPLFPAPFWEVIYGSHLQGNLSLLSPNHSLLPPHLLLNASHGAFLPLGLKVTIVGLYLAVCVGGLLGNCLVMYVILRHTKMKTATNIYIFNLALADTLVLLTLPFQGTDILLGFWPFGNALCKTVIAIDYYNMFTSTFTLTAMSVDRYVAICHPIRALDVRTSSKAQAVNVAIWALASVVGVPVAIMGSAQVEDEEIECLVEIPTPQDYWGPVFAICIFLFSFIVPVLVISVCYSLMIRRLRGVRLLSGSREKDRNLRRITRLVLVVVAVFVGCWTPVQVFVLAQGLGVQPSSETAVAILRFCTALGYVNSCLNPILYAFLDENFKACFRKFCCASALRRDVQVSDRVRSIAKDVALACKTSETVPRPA
Chain of Sodium-dependent noradrenaline transporter (Homo sapiens) (P23975 whole entry): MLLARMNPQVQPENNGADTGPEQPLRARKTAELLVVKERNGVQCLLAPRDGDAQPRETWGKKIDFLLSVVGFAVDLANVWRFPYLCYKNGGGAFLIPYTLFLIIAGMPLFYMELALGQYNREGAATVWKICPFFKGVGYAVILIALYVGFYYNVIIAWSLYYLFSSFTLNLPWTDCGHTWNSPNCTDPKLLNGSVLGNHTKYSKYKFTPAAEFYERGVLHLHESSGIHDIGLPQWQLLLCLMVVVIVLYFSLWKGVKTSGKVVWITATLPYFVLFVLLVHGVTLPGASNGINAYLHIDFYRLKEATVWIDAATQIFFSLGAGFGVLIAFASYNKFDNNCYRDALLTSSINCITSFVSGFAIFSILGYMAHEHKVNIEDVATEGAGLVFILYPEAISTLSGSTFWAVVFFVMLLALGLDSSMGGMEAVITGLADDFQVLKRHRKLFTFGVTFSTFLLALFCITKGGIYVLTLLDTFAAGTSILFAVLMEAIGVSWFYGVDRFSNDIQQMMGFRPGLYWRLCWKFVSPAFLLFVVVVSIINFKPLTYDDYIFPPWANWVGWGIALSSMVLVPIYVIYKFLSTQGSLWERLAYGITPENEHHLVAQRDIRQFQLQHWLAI
Chain of Beta-1 adrenergic receptor (Homo sapiens) (P08588 whole entry, looked up): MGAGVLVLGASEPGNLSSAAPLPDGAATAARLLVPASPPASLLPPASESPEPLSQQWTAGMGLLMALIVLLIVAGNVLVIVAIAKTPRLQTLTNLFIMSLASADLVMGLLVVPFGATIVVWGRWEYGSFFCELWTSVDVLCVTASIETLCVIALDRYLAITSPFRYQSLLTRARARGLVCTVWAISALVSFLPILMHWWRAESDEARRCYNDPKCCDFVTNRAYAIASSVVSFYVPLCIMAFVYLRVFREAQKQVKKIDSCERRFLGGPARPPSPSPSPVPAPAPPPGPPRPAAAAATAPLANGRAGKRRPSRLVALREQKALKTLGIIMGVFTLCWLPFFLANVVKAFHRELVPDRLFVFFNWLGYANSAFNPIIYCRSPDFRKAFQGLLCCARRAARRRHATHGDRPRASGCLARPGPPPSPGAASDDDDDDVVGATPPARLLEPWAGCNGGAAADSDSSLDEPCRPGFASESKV
Chain of Substance-P receptor (Homo sapiens) (P25103 whole entry): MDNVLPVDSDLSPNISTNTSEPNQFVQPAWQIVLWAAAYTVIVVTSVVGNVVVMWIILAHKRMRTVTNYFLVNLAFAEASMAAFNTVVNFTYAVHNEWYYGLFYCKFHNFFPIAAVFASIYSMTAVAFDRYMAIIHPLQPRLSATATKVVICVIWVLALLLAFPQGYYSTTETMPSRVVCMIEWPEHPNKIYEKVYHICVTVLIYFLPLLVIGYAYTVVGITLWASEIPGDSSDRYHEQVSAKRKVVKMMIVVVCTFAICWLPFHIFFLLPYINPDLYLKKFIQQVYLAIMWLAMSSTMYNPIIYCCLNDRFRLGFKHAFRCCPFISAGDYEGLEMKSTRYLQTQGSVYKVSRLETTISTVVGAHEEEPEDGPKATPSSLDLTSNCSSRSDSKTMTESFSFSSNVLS
Chain of Histamine H2 receptor (Homo sapiens) (P25021 whole entry): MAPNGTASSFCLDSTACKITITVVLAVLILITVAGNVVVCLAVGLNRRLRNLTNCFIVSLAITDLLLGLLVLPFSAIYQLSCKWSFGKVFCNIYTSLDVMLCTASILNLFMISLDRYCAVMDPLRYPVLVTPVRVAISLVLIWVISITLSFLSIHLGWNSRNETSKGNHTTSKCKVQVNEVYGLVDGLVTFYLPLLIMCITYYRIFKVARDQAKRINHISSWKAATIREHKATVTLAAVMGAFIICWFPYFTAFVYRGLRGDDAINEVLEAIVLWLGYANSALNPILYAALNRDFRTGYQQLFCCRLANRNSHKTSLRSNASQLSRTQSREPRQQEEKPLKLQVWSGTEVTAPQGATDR

inhibition [1]: < 30%
inhibition [2]: < 30%
inhibition [3]: < 30%
inhibition [5]: < 30%
inhibition [6]: < 30%
inhibition [7]: < 20%
inhibition [8]: < 20%
inhibition [9]: < 30%
inhibition [10]: < 30%
bioavailability [11]: 84%
inhibition [12]: < 30%
IC50 [13]: 3.2 nM
inhibition [14]: < 30%
inhibition [15]: < 30%
half-life [16]: 2.7 h
logD [17]: 0.64
inhibition [18]: < 30%
inhibition [19]: < 30%
inhibition [20]: < 20%
Papp B→A [21]: 13 ×10⁻⁶ cm/s
Stability [22]: 93%
inhibition [23]: < 30%
inhibition [24]: < 30%
Compound: O=C(O)COc1ccc(Br)cc1C(=O)c1cnn(-c2ccccc2)c1
inhibition in vivo at 100 mg/kg [4]: 55%

Source: ChEMBL document CHEMBL1137324, “Novel selective orally active CRTH2 antagonists for allergic inflammation developed from in silico derived hits” (J Med Chem, 2006)
